Literature values in patent US20240285563A1, “USE OF (S)-3-AMINO-4-(DIFLUOROMETHYLENYL) CYCLOPENT-1-ENE-1-CARBOXYLIC ACID IN THE TREATMENT OF RHEUMATOID ARTHRITIS” (Ovid Therapeutics Inc., priority 2023, published 2024).

Tests used:
[1] = test system: alanine aminotransferase (Ala-AT)
[2] = test system: aspartate aminotransferase (Asp-AT)
OAT = target: T1, OAT (Homo sapiens, UniProt P04181)
T1 sequence (P04181 36-439 limits assumed): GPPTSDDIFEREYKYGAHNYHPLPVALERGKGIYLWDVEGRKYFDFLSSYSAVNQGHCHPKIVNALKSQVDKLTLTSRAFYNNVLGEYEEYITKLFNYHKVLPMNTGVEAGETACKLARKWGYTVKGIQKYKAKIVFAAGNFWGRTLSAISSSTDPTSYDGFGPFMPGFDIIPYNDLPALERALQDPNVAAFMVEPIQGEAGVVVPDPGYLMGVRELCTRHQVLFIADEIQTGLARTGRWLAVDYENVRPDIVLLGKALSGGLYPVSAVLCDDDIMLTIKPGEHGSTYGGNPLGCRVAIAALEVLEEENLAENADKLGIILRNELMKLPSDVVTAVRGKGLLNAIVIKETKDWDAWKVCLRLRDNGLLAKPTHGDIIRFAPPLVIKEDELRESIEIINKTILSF

| IC50 ([1]; very weak reversible inhibitor) [µM] | IC50 ([2]; very weak reversible inhibitor) [µM] | times more efficient an inactivator of OAT than CPP-115 (OAT; ratio of kinact/KI versus CPP-115) [times] | Structure (SMILES) | inactivation or inhibition of off-target enzyme [1] | inactivation or inhibition of off-target enzyme [2] | Ki (OAT) [µM] |
| --- | --- | --- | --- | --- | --- | --- |
|  |  |  | N[C@H]1C[C@@H](C(=O)O)CC1=C(F)F [CPP-115, (1S,3S)-3-amino+difluoromethylenyl-1-cyclopentanoic acid, reference compound] | not to inactivate or inhibit | not to inactivate or inhibit | 116 |
| > 4000 | > 4000 | 9.0 | N[C@H]1C=C(C(=O)O)CC1=C(F)F [OV329, (S)-3-amino-4-(difluoromethylenyl)cyclopent-1-ene-1-carboxylic acid] |  |  | 3.3 |
